In patent US6538005B2, “Phenanthridine-N-oxides with PDE-IV inhibiting activity” (ALTANA Pharma AG, priority 1999, dated 2003):

How the values were obtained:
PDE4 = test: Inhibition of PDE4 activity (method of Bauer and Schwabe, adapted to microtiter plates); assay type: biochemical; details: inhibitory concentration as −log IC50 (mol/l)
Excerpt: The activity test can be carried out, for example, according to the method of Bauer and Schwabe. For this, the method is adapted to microfiter plates (Naunyn-Schmiedeberg's Arch. Pharmacol. 1980, 311, 193-198). The PDE reaction takes place in the first step here. In a second step, the resulting 5′-nucleotide is cleaved by a 5′-nucleotidase of the snake venom of Crotalus atrox to the uncharged nucleoside. In the third step, the nucleoside is separated from the remaining charged substrate on ion-exchange columns. The columns are eluted directly into minivials, into which 2 ml of scintillator fluid are additionally added for counting, using 2 ml of 30 mM ammonium formate (pH 6.0).
The inhibitory values determined for the compounds according to the invention [inhibitory concentration as −log IC50 (mol/l)] follow from the following Table A, in which the numbers of the compounds correspond to the numbers of the examples.

Question: With `COc1ccc(NC(=O)c2cccc(C3=[N+]([O-])C4CCCCC4c4cc(OC)c(OC)cc43)c2)cc1` (single isomer, unassigned; (-)) [Compound 1, (−)-cis-8,9-Dimethoxy-6-[3-(4-methoxyphenylamido)phenyl]-1,2,3,4,4a,10b-hexahydrophenanthridine-5-N-oxide] as the molecule, how does the “−log IC50” value (PDE4) read?
Answer: 6.73 mol/l

Question: And the melting point?
Answer: 229 to 230 °C
